The source of these data is patent US20240358735A1, “THERAPEUTIC COMPOSITIONS AND RELATED METHODS” (BOYCE THOMPSON INSTITUTE FOR PLANT RESEARCH, INC., priority 2021, published 2024).

Experiment [1] deals with proteasome alpha and beta subunits. Nature of the experiment: Limited proteolysis-coupled mass spectrometry (LiP-MS) of C. elegans lysates. It counts as binding. To be noted: FIG. 35; C. elegans lysate, compound 0.1 mM, proteinase K. An excerpt: (§1) To investigate the cellular interactors of MOGLs, two independent approaches were applied: thermal proteome profiling (TPP) and limited proteolysis-coupled mass spectrometry (LiP-MS), to uncover binding events upon compound treatment of C. elegans lysates using MOGLs of the sngl-class as an example. […] Moreover, there were multiple peptides from proteasome alpha subunits and one peptide from the beta unit that were differential, with absence-present contrast, in the LiP-MS experiment (FIG. 35). Results from these two assays which reflect distinct biophysical properties of protein-small molecule binding, strongly support interaction between sngl #1 and sngl #2 with the proteasome.
To obtain mechanistic insight into the binding of proteasome with sngl #1/sngl #2, LiP-MS data were analyzed to reveal peptides around sub-structures of proteins where the binding occurs.
C. elegans lysate preparation and compound incubation. Synchronized pah-1(syb3596); tph-1(mg280) double knockout C. elegans were grown with ΔtnaA E. coli (JW3686-7) for two generations; growth conditions and harvesting procedures were as described in the ‘Nematode cultures’ section above. […] Protein concentration was determined by Bradford assay (MilliporeSigma) and diluted to 1 mg/mL by lysis buffer. […]

The test system is the same in experiment [2]. Nature of the experiment: Thermal proteome profiling (TPP) of C. elegans lysates. It counts as binding. Particulars: compound 0.1 mM; for thermal stability of majority detected proteasome alpha and beta subunits (TPP): C. elegans lysate 1 mg/mL, 15 min room temperature, heated; for thermal stability of proteasome subunit PBS-1 (TPP): FIG. 36, C. elegans lysate.
Excerpt: as §1
C. elegans lysate preparation and compound incubation. Synchronized pah-1(syb3596); tph-1(mg280) double knockout C. elegans were grown with ΔtnaA E. coli (JW3686-7) for two generations; growth conditions and harvesting procedures were as described in the ‘Nematode cultures’ section above. Worms were lysed by sonication with lysis buffer (25 mM Tris pH 7.5, 150 mM NaCl, 1.5 mM MgCl2.1 mM phenylmethylsulfonyl fluoride, 1× protease inhibitor cocktail (Roche), 1 mM sodium fluoride) for 5 min (3 s on/off pulse cycle at Amp 100). Protein concentration was determined by Bradford assay (MilliporeSigma) and diluted to 1 mg/mL by lysis buffer. To each aliquot of lysate was added compound (sngl #1, sngl #2, N-acetylserotonin, and solvent (ethanol) control (Mock)) to a final concentration of 0.1 mM and the mixtures were shaken for 15 min at room temperature.
Thermal proteome profiling (TPP) sample preparation. Methods were modified from published protocol (Franken, H., T. et al. Nature Protocols 10(10): 1567-1593). Lysate-compound mixture were aliquoted into 0.2-mL PCR tubes, heated at specified temperatures for 3 min using a Thermal Cycler (BioRad), centrifuged at 16,000 g at 4° C. for 5 min, and the supernatant were transferred into Eppendorf tubes. Four volumes of prechilled (−20° C.) acetone were added to each sample for precipitation of proteins overnight. Samples were centrifuged at 16,000 g at 4° C. for 20 min, washed once by methanol, and the resulting protein pellets were dissolved in urea buffer (50 mM ammonium bicarbonate, 2 M thiourea, 6 M urea). To digest proteins for mass spectrometry analysis, proteins were first reduced by dithiothreitol (final concentration 5 mM) for 30 min at room temperature, alkylated by iodoacetamide (final concentration 15 mM) for 30 min at room temperature in the dark, digested by LysC/Trypsin Mix (Promega) (enzyme/substrate=1/30, w/w) based on manufacturer's instructions. […] Peptides were measured by nanoHPLC-MS/MS by standard methods.

As for `CC(=O)NCCc1c[nH]c2ccc(O[C@@H]3O[C@H](CO)[C@@H](O)[C@H](O)[C@H]3O)cc12` [sngl #1, N-(2-(5-(((2S,3R,4S,5S,6R)-3,4,5-trihydroxy-6-(hydroxymethyl)tetrahydro-2H-pyran-2-yl)oxy)-1H-indol-3-yl)ethyl)acetamide], in experiment [1], the “PAS- or PBS-derived peptides detected in LiP-MS” value was “indicative of specific binding to PAS and PBS”. Also, in experiment [2], the “thermal stability of majority detected proteasome alpha and beta subunits (TPP)” value was “significantly change the thermal stability”; the “thermal stability of proteasome subunit PBS-1 (TPP)” value is “affect the thermal stability”.
On to `CC(=O)NCCc1c[nH]c2ccc(O[C@@H]3O[C@H](CO)[C@@H](O)[C@H](OP(=O)(O)O)[C@H]3O)cc12` [sngl #2, (2S,3R,4S,5R,6R)-2-((3-(2-acetamidoethyl)-1H-indol-5-yl)oxy)-3,5-dihydroxy-6-(hydroxymethyl)tetrahydro-2H-pyran-4-yl dihydrogen phosphate], for which, in experiment [1], the “PAS- or PBS-derived peptides detected in LiP-MS” value was “indicative of specific binding to PAS and PBS”. In experiment [2], the “thermal stability of majority detected proteasome alpha and beta subunits (TPP)” value is given as “significantly change the thermal stability”; the “thermal stability of proteasome subunit PBS-1 (TPP)” value is “affect the thermal stability”.
